The values below come from patent publication US20210122730A1, “GLUCOCORTICOID RECEPTOR MODULATORS” (ORIC Pharmaceuticals, Inc., priority 2017, published 2021).

One series deals with T1, CYP2C8 (Homo sapiens, UniProt P10632).
T1 construct: Pooled human microsomes were obtained from Sekisui XenoTech, KS; tissue Sekisui XenoTech, KS; host or cells: pooled human liver microsomes
T1 sequence (P10632 1-490): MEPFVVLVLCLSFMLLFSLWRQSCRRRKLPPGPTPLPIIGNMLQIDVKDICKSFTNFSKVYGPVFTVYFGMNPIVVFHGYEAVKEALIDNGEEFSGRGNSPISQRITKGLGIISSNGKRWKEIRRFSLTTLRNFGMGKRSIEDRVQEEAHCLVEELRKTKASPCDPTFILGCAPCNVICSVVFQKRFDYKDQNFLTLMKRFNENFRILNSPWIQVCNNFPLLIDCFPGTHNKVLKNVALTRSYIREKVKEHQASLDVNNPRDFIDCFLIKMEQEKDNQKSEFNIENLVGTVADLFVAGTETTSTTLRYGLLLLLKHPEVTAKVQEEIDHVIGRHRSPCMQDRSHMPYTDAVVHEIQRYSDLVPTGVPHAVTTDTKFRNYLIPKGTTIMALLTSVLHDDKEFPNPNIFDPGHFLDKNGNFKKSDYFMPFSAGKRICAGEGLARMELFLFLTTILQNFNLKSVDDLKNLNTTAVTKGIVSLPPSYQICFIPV
Kind of series: CYP Inhibition Assay (CYP2C8, human liver microsomes, paclitaxel substrate). Format: in vitro ADME. Particulars: pH 7.4; pooled human liver microsomes 0.1 mg/mL, probe substrate paclitaxel. Summed up:
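CYP2C8 activity read as 6α-hydroxypaclitaxel formation by LC-MS/MS, with % inhibition versus vehicle control. Reactions ran 5 min at 37° C, pH 7.4 phosphate buffer, 0.1 mg/mL pooled human liver microsomes, 1 mM NADPH, duplicate wells.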
(In general: Liver microsomes are a subcellular fraction often used to study metabolism.)

The target in the next series is T2, GR (Homo sapiens, UniProt P04150).
T2 construct: expressed in transfected cells; host or cells: CHO-K1
T2 sequence (P04150 1-777): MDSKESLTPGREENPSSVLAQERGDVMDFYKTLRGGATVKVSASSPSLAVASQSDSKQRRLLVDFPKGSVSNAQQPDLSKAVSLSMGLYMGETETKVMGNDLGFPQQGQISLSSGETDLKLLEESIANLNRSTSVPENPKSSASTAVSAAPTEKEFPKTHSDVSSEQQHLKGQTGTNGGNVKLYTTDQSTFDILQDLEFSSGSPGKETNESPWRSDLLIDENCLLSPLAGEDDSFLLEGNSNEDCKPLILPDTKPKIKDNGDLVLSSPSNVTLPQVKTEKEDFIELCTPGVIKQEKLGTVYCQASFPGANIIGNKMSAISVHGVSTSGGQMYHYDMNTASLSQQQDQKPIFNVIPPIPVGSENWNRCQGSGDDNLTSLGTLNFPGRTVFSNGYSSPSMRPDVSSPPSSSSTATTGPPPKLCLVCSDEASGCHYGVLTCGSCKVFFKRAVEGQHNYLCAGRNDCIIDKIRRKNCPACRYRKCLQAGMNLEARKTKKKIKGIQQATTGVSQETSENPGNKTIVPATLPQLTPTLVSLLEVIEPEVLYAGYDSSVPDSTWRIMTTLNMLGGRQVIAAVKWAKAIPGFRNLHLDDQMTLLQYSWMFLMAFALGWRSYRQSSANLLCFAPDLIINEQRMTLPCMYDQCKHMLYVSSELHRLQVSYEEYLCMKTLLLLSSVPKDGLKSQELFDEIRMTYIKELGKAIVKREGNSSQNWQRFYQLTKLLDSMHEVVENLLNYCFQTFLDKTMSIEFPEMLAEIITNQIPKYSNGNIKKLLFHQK
Kind of series: In Vitro GR Luciferase Reporter Assay (antagonist mode, CHO-K1-GR-MMTV-Luc reporter cells). Format: cell-based. The conditions noted are these: antagonist mode, 10 nM Dexamethasone. Summed up: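 Antagonist mode: compounds (8 serial 1:5 dilutions) added to GR-MMTV-luciferase CHO-K1 reporter cells co-exposed to 10 nM dexamethasone final, in phenol red-free DMEM plus 10% CSS. After roughly 18-24 h at 37° C, OneGlo luminescence read and IC50 calculated.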
In general terms: In a reporter assay the amount or activity of a reporter protein is the signal.

Each structure is given as a SMILES string.

In the case of `Cn1cnc(S(=O)(=O)N(C2CC(F)(F)C2)[C@H]2CCC3=Cc4c(cnn4-c4ccc(F)cc4)C[C@]3(C(=O)c3cc(F)ccn3)C2)n1` [Example 354, N-(3,3-difluorocyclobutyl)-N-((4aS,6S)-1-(4-fluorophenyl)-4a-(4-fluoropicolinoyl)-4,4a,5,6,7,8-hexahydro-1H-benzo[f]indazol-6-yl)-1-methyl-1H-1,2,4-triazole-3-sulfonamide], at CYP2C8, the inhibition at 5 min was in the range of 25 to 50%. Besides, the IC50 on GR is not above 100 nM.
Regarding `Cn1cnc(S(=O)(=O)N(C2CC(F)(F)C2)[C@H]2CCC3=Cc4c(cnn4-c4ccc(F)cc4)C[C@]3(C(=O)c3cc(Cl)ccn3)C2)n1` [Example 355, N-((4aS,6S)-4a-(4-chloropicolinoyl)-1-(4-fluorophenyl)-4,4a,5,6,7,8-hexahydro-1H-benzo[f]indazol-6-yl)-N-(3,3-difluorocyclobutyl)-1-methyl-1H-1,2,4-triazole-3-sulfonamide], at CYP2C8, the inhibition at 5 min is not above 25%. The compound further had an IC50 against GR not above 100 nM.
On to `CCN([C@H]1CCC2=Cc3c(cnn3-c3ccc(F)cc3)C[C@]2(C(=O)c2ncc(C(F)(F)F)s2)C1)S(=O)(=O)c1ncn(C)n1` [Example 356, N-ethyl-N-((4aS,6S)-1-(4-fluorophenyl)-4a-(5-(trifluoromethyl)thiazole-2-carbonyl)-4,4a,5,6,7,8-hexahydro-1H-benzo[f]indazol-6-yl)-1-methyl-1H-1,2,4-triazole-3-sulfonamide], for which, at CYP2C8, the inhibition at 5 min was in the range of 25 to 50%. On GR, this compound registered an IC50 not above 100 nM.
In the same order, the values of `CCN([C@H]1CCC2=Cc3c(cnn3-c3ccc(F)cc3)C[C@]2(C(=O)c2cc(C(F)(F)F)ccn2)C1)S(=O)(=O)c1ncn(C)n1` [Example 357, N-ethyl-N-((4aS,6S)-1-(4-fluorophenyl)-4a-(4-(trifluoromethyl)picolinoyl)-4,4a,5,6,7,8-hexahydro-1H-benzo[f]indazol-6-yl)-1-methyl-1H-1,2,4-triazole-3-sulfonamide] are not above 25% and not above 100 nM.
`CCN([C@H]1CCC2=Cc3c(cnn3-c3ccc(F)cc3)C[C@]2(C(=O)c2cc(F)ccn2)C1)S(=O)(=O)c1ncn(C)n1` [Example 358, N-ethyl-N-((4aS,6S)-1-(4-fluorophenyl)-4a-(4-fluoropicolinoyl)-4,4a,5,6,7,8-hexahydro-1H-benzo[f]indazol-6-yl)-1-methyl-1H-1,2,4-triazole-3-sulfonamide] showed an inhibition at 5 min against CYP2C8 of 25 to 50%. For the same compound, on GR, the IC50 is not above 100 nM.
As to `CCN([C@H]1CCC2=Cc3c(cnn3-c3ccc(F)cc3)C[C@]2(C(=O)c2cc(Cl)ccn2)C1)S(=O)(=O)c1ncn(C)n1` [Example 359, N-((4aS,6S)-4a-(4-chloropicolinoyl)-1-(4-fluorophenyl)-4,4a,5,6,7,8-hexahydro-1H-benzo[f]indazol-6-yl)-N-ethyl-1-methyl-1H-1,2,4-triazole-3-sulfonamide], the inhibition at 5 min at CYP2C8 lay within 25 to 50%. In addition, on GR, the IC50 is not above 100 nM.
`Cn1cnc(S(=O)(=O)N(C2CC2)[C@H]2CCC3=Cc4c(cnn4-c4ccc(F)cc4)C[C@]3(C(=O)c3cc(Cl)ccn3)C2)c1` [Example 363, N-((4aS,6S)-4a-(4-chloropicolinoyl)-1-(4-fluorophenyl)-4,4a,5,6,7,8-hexahydro-1H-benzo[f]indazol-6-yl)-N-cyclopropyl-1-methyl-1H-imidazole-4-sulfonamide] came in with an inhibition at 5 min at CYP2C8 of 25 to 50%. Further, the IC50 against GR was not above 100 nM.
In the same order, the values of `Cn1ccc(S(=O)(=O)N([C@H]2CCC3=Cc4c(cnn4-c4ccc(F)cc4)C[C@]3(C(=O)c3ncc(C(F)(F)F)s3)C2)[C@H]2C[C@](O)(C(F)(F)F)C2)n1` [Example 366, N-((4aS,6S)-1-(4-fluorophenyl)-4a-(5-(trifluoromethyl)thiazole-2-carbonyl)-4,4a,5,6,7,8-hexahydro-1H-benzo[f]indazol-6-yl)-N-((1s,3R)-3-hydroxy-3-(trifluoromethyl)cyclobutyl)-1-methyl-1H-pyrazole-3-sulfonamide] are not above 25% and not above 100 nM.
On to `Cn1cnc(S(=O)(=O)N(CC(F)(F)F)[C@H]2CCC3=Cc4c(cnn4-c4ccc(F)cc4)C[C@]3(C(=O)c3ncc(C(F)(F)F)s3)C2)n1` [Example 367, N-((4aS,6S)-1-(4-fluorophenyl)-4a-(5-(trifluoromethyl)thiazole-2-carbonyl)-4,4a,5,6,7,8-hexahydro-1H-benzo[f]indazol-6-yl)-1-methyl-N-(2,2,2-trifluoroethyl)-1H-1,2,4-triazole-3-sulfonamide], for which, at CYP2C8, the inhibition at 5 min lay in the range of 25 to 50%. This compound had an IC50 against GR not above 100 nM.
For `Cn1ccc(S(=O)(=O)N([C@H]2CCC3=Cc4c(cnn4-c4ccc(F)cc4)C[C@]3(C(=O)c3ncc(C(F)(F)F)s3)C2)[C@H]2C[C@@](O)(C(F)(F)F)C2)n1` [Example 368, N-((4aS,6S)-1-(4-fluorophenyl)-4a-(5-(trifluoromethyl)thiazole-2-carbonyl)-4,4a,5,6,7,8-hexahydro-1H-benzo[f]indazol-6-yl)-N-((1r,3S)-3-hydroxy-3-(trifluoromethyl)cyclobutyl)-1-methyl-1H-pyrazole-3-sulfonamide] the same measures were 25 to 50% and not above 100 nM.
For `CO[C@]1(C)C[C@H](N([C@H]2CCC3=Cc4c(cnn4-c4ccc(F)cc4)C[C@]3(C(=O)c3cc(F)ccn3)C2)S(=O)(=O)c2ccn(C)n2)C1` [Example 371, N-((4aS,6S)-1-(4-fluorophenyl)-4a-(4-fluoropicolinoyl)-4,4a,5,6,7,8-hexahydro-1H-benzo[f]indazol-6-yl)-N-((1s,3R)-3-methoxy-3-methylcyclobutyl)-1-methyl-1H-pyrazole-3-sulfonamide], the inhibition at 5 min against CYP2C8 lay within 25 to 50%. Also, the IC50 against GR was not above 100 nM.
`Cn1cc(S(=O)(=O)N(CC(F)F)[C@H]2CCC3=Cc4c(cnn4-c4ccc(F)cc4)C[C@]3(C(=O)c3cc(F)ccn3)C2)nn1` [Example 373, N-(2,2-difluoroethyl)-N-((4aS,6S)-1-(4-fluorophenyl)-4a-(4-fluoropicolinoyl)-4,4a,5,6,7,8-hexahydro-1H-benzo[f]indazol-6-yl)-1-methyl-1H-1,2,3-triazole-4-sulfonamide]: on CYP2C8, the inhibition at 5 min lay within 50 to 75%. The IC50 at GR is not above 100 nM.
At CYP2C8, `Cn1cnc(S(=O)(=O)[C@H]2CCC3=Cc4c(cnn4-c4ccc(F)cc4)C[C@]3(C(=O)c3ccc(C(F)(F)F)cn3)C2)n1` [Example 374, ((4aS,6S)-1-(4-fluorophenyl)-6-((1-methyl-1H-1,2,4-triazol-3-yl)sulfonyl)-1,4,5,6,7,8-hexahydro-4aH-benzo[f]indazol-4a-yl)(5-(trifluoromethyl)pyridin-2-yl)methanone] showed an inhibition at 5 min not above 25%. Besides, the IC50 against GR was not above 100 nM.
`Cn1cnc(S(=O)(=O)CC2CCC3=Cc4c(cnn4-c4ccc(F)cc4)C[C@]3(C(=O)c3cc(C(F)(F)F)ccn3)C2)n1` (stereo partly drawn) [Example 377, ((4aR)-1-(4-fluorophenyl)-6-(((1-methyl-1H-1,2,4-triazol-3-yl)sulfonyl)methyl)-1,4,5,6,7,8-hexahydro-4aH-benzo[f]indazol-4a-yl)(4-(trifluoromethyl)pyridin-2-yl)methanone]: on CYP2C8, the inhibition at 5 min lay within 25 to 50%. Besides, at GR, the IC50 was not above 100 nM.

What is called inhibition is the share of the control response that was lost under treatment. Read a high inhibition as a response far below the control. A word on the IC50: it is the concentration at which inhibition is half-maximal. A low value points to greater potency in that assay.
